Measurements taken from PMC6701825, “Antiproliferative and Antimigratory Effects of a Novel YAP–TEAD Interaction Inhibitor Identified Using in Silico Molecular Docking” (Journal of Medicinal Chemistry, 2019).

How the values were obtained:
[1] = tested on: HeLa cells; assay: Live/dead cell viability assay (ethidium homodimer-1) in HeLa cells; assay type: cell-based; conditions: 6 hours
Method: Cell viability was quantified using the live/dead viability/cytotoxicity assay standard protocol (Invitrogen). Maximum cell death was quantified by incubating cells for 10 min with 0.1% Triton-X, followed by incubation with 0.4 μM ethidium homodimer-1 for an additional 10 min. Fluorescence was measured using a GloMax Discover multiplate reader (Promega).
Supplement Figure 3: Effect of shortlisted compounds on cell viability
HeLa cells transduced with TEAD-NLUC reporter were treated with indicated compounds at 100 µM for 6 hours (n=3). Cell viability was quantified by staining with 0.4 µM ethidium homodimer-1 and ethidium homodimer-1 uptake quantified by measuring fluorescence at 645 nm using a Glomax Discover plate reader.
(1 picture or pasted object on this page, not shown here)
Supplement Figure 6: Effect of CPD3, CPD3.1, CPD3.2 and CPD 3.3 on cell viability HeLa cells transduced with TEAD-NLUC reporter were treated with indicated concentrations of CPD3, CPD3.1, CPD3.2 and CPD 3.3 for 6 hours (n=3). Cell viability was quantified by staining with 0.4 µM ethidium homodimer-1 and ethidium homodimer-1 uptake quantified by measuring fluorescence at 645 nm using a Glomax Discover plate

[2] = tested on: TEAD-dependent transcriptional activity; assay: 8xTEAD secreted nanoluciferase (TEAD-NLUC) reporter assay in HeLa cells; assay type: cell-based, human; conditions: HeLa, indicated concentrations, 6 h
Excerpt: The shortlisted sets of 16 compounds were first assayed for their ability to inhibit TEAD-dependent transcriptional activity in HeLa cells that had been transduced with a recombinant lentiviral vector expressing secreted bioluminescent nanoluciferase (NLUC) reporter gene enzyme, which is expressed under the control of a promoter region containing eight TEAD DNA-binding elements (TEAD-NLUC).
Compounds were initially screened for ability to inhibit TEAD-dependent transcriptional activity in HeLa cells transduced with a lentiviral vector expressing secreted nanoluciferase under the control of multimerized TEAD consensus elements (5′-[…]-3′). 8xTEAD NanoLuc was generated by cloning the 8xTEAD promoter from the 8xTEAD-Luc plasmid (Addgene #34615) into the pENTR gateway entry vector (Promega). This was then recombined into pLNT-sec-Nluc-2A-eGFP destination vector (supplied by Tristan McKay; University of Manchester). Lentiviruses were generated by Viafect-mediated co-transfection of pLNT8x-TEAD-sec-Nluc-2A-eGFP, Δ8.9, and VSV-G vectors into HEK293T cells (ATCC), and lentiviral-containing culture supernatants were used to infect HeLa cells in the presence of 6 μg/mL polybrene. For compound screening, 8xTEAD NanoLuc-transduced HeLa cells were seeded at 2 × 10^4 cells/well in 96-well plates. After 48 h, the cells were washed in PBS and incubated with test compounds at the indicated concentrations for 2 h. The cells were washed again in PBS and incubated with the compound for a further 4 h. Conditioned culture medium (50 μL) was assayed for secreted nanoluciferase activity using NanoGlo activity assays kit (Promega) and a Glomax Discover luminometer.

[3] = indicated concentrations, HeLa (Supplement Figure 6)

SMILES	effect on cell viability [1, 3]	effect on TEAD-NLUC activity [2]	effect on cell viability ([1]; 100 µM, HeLa TEAD-NLUC cells)
OCC(O)CN1CCNCC1 (centres unmarked) [CPD3.2]	Neither CPD3.2 nor CPD3.3 had any effect	Neither CPD3.2 nor CPD3.3 had any effect	
O=C(O)c1ccco1 [CPD3.3]	Neither CPD3.2 nor CPD3.3 had any effect	Neither CPD3.2 nor CPD3.3 had any effect	
O=C(NCCn1ncc2c(N3CCN(c4ncccn4)CC3)ncnc21)C12CC3CC(CC(C3)C1)C2 [CPD8]			without significantly affecting cell viability
